Experimental data published in the NIST ThermoML archive (doi:10.1016/j.jct.2005.08.009).
Numbers after ± are expanded uncertainties.

Tests used:
[1] = 101 kPa, Liquid
[2] = xn = mol fraction of the nth substance listed; conditions: 101 kPa, Liquid, x2 = 0

Row | mass density ([1]; 298.15 K) [kg/m3] | viscosity ([1]; 298.15 K) [mPa·s] | mass density ([1]; 303.15 K) [kg/m3] | viscosity ([1]; 303.15 K) [mPa·s] | mass density ([1]; 308.15 K) [kg/m3] | viscosity ([1]; 308.15 K) [mPa·s] | mass density ([1]; 313.15 K) [kg/m3] | viscosity ([1]; 313.15 K) [mPa·s] | mass density ([1]; 318.15 K) [kg/m3] | viscosity ([1]; 318.15 K) [mPa·s] | viscosity ([2]; 298.15 K) [mPa·s] | viscosity ([2]; 303.15 K) [mPa·s] | viscosity ([2]; 308.15 K) [mPa·s] | viscosity ([2]; 313.15 K) [mPa·s] | viscosity ([2]; 318.15 K) [mPa·s] | Compound
1 | 776.69 ± 1.9 | 0.3417 ± 0.0053 | 771.89 ± 1.9 | 0.328 ± 0.0051 | 765.46 ± 2 | 0.3129 ± 0.0049 | 760.86 ± 2 | 0.3009 ± 0.0048 | 754.76 ± 2 | 0.2899 ± 0.0047 | – | – | – | – | – | CC#N [acetonitrile]
2 | – | – | – | – | – | – | – | – | – | – | 0.8901 ± 0.011 | 0.7973 ± 0.01 | 0.7193 ± 0.0093 | 0.653 ± 0.0086 | 0.5961 ± 0.008 | O [water] + CC#N
